Assays:
soybean plants = experiment: Rating for plant health of T1 soybean plants; format: in vivo
Experimental: 12 T1 soybean plants per event and respective controls are potted and grown for 3-4 weeks in the phytochamber (16 h day-und 8 h-night-Rhythm at a temperature of 16° and 22° C. und a humidity of 75%) till the first 2 trifoliate leaves were fully expanded. A general rating of plant health is performed before (and partially after) the infection experiment. Only those plants are selected for inoculation that show, in general, a healthy phenotype. Healthy phenotype means normal growth habit, green, fully expanded green leaves, having no or only minor lesions, no obvious yellowing, leaf drop or other stress-associated phenotypes.

Phakopsora pachyrhizi = experiment: Pathogen assay for soybean: susceptibility to soybean rust (diseased leaf area); format: in vivo, Phakopsora pachyrhizi on soybean
Experimental: 12 T1 soybean plants per event and respective controls are potted and grown for 3-4 weeks in the phytochamber (16 h day-und 8 h-night-Rhythm at a temperature of 16° and 22° C. und a humidity of 75%) till the first 2 trifoliate leaves were fully expanded.
The plants are inoculated with spores of P. pachyrhizi. In order to obtain appropriate spore material for the inoculation, soybean leaves, which are infected with rust 15-20 days ago, are taken 2-3 days before the inoculation and transferred to agar plates (1% agar in H2O). The leaves are placed with their upper side onto the agar, which allowed the fungus to grow through the tissue and to produce very young spores. For the inoculation solution, the spores are knocked off the leaves and are added to a Tween-H2O solution. The counting of spores is performed under a light microscope by means of a Thoma counting chamber. […]
The progression of the soybean rust disease is scored in percent by the estimation of the diseased area (area which was covered by sporulating uredinia) on the backside (abaxial side) of the leaf. […]
At all 11-12 T1 soybean plants per event and 5 independent events per construct were inoculated with spores of Phakopsora pachyrhizi. The macroscopic disease symptoms of soybean against P. pachyrhizi of the inoculated soybean plants were scored 14 days after inoculation. […]

[1] = transgenic soybean accumulating the coumarin, compared with WT

Germination rate (soybean plants; [1])	first trifoliate leaf (soybean plants; [1])	growth phenotype (soybean plants; [1])	older leaves (soybean plants; [1])	Germination rate (soybean plants; in vivo)	first trifoliate leaf (soybean plants; in vivo)	growth phenotype (soybean plants; in vivo)	older leaves (soybean plants; in vivo)	SMILES	reduction of the diseased leaf area in comparison to non-transgenic control plants (Phakopsora pachyrhizi; 59 T1 soybean plants (5 events) accumulating sideretin by expressing S8H+CYP82C4, inoculated with P. pachyrhizi spores, scored 14 days after inoculation, p<0.01) [%]	increase of soybean rust resistance (Phakopsora pachyrhizi; accumulation of sideretin by expression of S8H and CYP82C4 (and F6H1 and CoSy) in T1 soybean, vs 18 wild type controls, 14 days after inoculation, p=0,009) [%]
Slightly	some	Smaller	Yellowing of	–	–	–	–	COc1cc2ccc(=O)oc2cc1O [Scopoletin, scopoletin, reference compound]	–	–
–	–	–	–	like WT	like WT	like WT	Unclear	COc1c(O)c(O)c2oc(=O)ccc2c1O [Sideretin, sideretin]	41	41

— patent US20260275368A1, “COUMARIN SYNTHESIS AND USES THEREOF” (BASF SE, priority 2022, published 2026)
